Values quoted from earlier work as cited in patent US20160158308A1 (priority 2013, published 2016).
Like-named read-outs stand apart in the source and are kept apart here.

Tests used:
[1] = test system: Mycobacterium tuberculosis; settings: NAC at 10 millimolar
[2] = rat liver, CO-60, water control = 0% removal

SMILES | M. tuberculosis CFU/ml [1] | removal of the toxin [2] [%] | removal of the toxin ([2]; listed as Intravenous glutathione) [%]
CC(=O)N[C@@H](CS)C(=O)O [NAC, N-acetyl cysteine] | 8,000 CFU/ml | – | –
N[C@@H](CCC(=O)N[C@@H](CS)C(=O)NCC(=O)O)C(=O)O [Plain glutathione, glutathione] | – | 0 | 64
